Results taken from patent publication US6890955B2, “Aryloxypropanolamine derivatives, method of preparation and applications thereof” (Virbac SA, priority 1996, dated 2005).

- melting point: 230 to 231 °C
SMILES: Oc1cccc(OCC(O)CNCc2ccc3c(c2)OCO3)c1 (stereo not shown) [Compound 1e, N-((1,3-Benzodioxol-5-yl)methyl)-2-hydroxy-3-(3-hydroxyphenoxy)propylamine]
